Measured values reported in ChEMBL document CHEMBL5154801, “Virtual screening and crystallographic studies reveal an unexpected γ-lactone derivative active against MptpB as a potential antitubercular agent” (Eur J Med Chem, 2022).

Assays:
[1] = molecular target: T1, Phosphotyrosine-protein phosphatase PTPB (Mycobacterium tuberculosis, UniProt P96830); assay: Inhibition of Mycobacterium tuberculosis PTPB expressed in Escherichia coli BL21 (DE3) assessed as residual activity
T1 sequence (P96830 whole entry): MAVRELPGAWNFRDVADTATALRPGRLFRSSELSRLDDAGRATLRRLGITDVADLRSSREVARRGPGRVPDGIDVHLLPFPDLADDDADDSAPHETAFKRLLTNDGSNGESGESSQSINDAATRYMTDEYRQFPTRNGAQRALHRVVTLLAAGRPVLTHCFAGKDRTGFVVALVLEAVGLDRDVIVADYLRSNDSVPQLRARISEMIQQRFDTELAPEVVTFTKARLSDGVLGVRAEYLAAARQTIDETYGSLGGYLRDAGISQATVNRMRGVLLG

[2] = molecular target: T2, Phosphotyrosine-protein phosphatase PTPB (Mycobacterium tuberculosis) (UniProt P96830); assay: Inhibition of Mycobacterium tuberculosis PTPB expressed in Escherichia coli BL21 (DE3) assessed as residual activity at 100 uM using p-nitrophenyl phosphate as substrate relative to control
T2 sequence (whole entry): T1 sequence (P96830 whole entry)

[3] = Cytotoxicity against human WI-38 cells assessed as reduction in cell viability at 200 to 0.02 uM measured after 96 hrs; assay type: toxicity, cell-based
[4] = molecular target: T1, Phosphotyrosine-protein phosphatase PTPB; assay: Inhibition of Mycobacterium tuberculosis PTPB expressed in Escherichia coli BL21 (DE3) in presence of BSA by PAINS assay
[5] = molecular target: T1, Phosphotyrosine-protein phosphatase PTPB; assay: Inhibition of Mycobacterium tuberculosis PTPB expressed in Escherichia coli BL21 (DE3) in presence of DTT by PAINS assay
[6] = Cytotoxicity against human MRC5 cells assessed as reduction in cell viability at 200 to 0.02 uM measured after 96 hrs; assay type: toxicity, cell-based

| SMILES | IC50 [1] | Activity [2] | other results |
| --- | --- | --- | --- |
| O=C1OC(c2ccccc2C(F)(F)F)C(c2ccc3ccccc3n2)=C1O (stereo in doubt; 1-E1) [listing 1 of 2 here] | 31.1 µM | – | – |
| O=C1OC(c2ccccc2C(F)(F)F)C(c2ccc3ccccc3n2)=C1O (stereo in doubt; 1-E2) [listing 1 of 2 here] | – | 27.7% | – |
| O=C(O)C(=O)/C(=C/c1ccccc1C(F)(F)F)c1ccc2ccccc2n1 | 48.1 µM | 24.3% | IC50 at 96 h [3]: > 200 µM; IC50 [4]: 51.6 µM; IC50 [5]: 47 µM; IC50 at 96 h [6]: > 200 µM |
| CCOC(=O)c1c(NC(=O)C(=O)O)sc2c1CCCC2 | – | 69.5% | – |
| O=C1OC(c2ccccc2C(F)(F)F)C(c2ccc3ccccc3n2)=C1O (stereo in doubt; 1-E1) [listing 2 of 2 here] | – | 14.2% | – |
| O=C1OC(c2ccccc2C(F)(F)F)C(c2ccc3ccccc3n2)=C1O (stereo in doubt; 1-E2) [listing 2 of 2 here] | 72.2 µM | – | – |
| CC1(C)Cc2c(sc(NC(=O)C(=O)O)c2C(=O)O)CO1 | – | 104% | – |
| Cc1onc(C(=O)O)c1-c1cccc(-c2cc(Cl)c(O)c(Cl)c2)c1 | 25.8 µM | 10.9% | – |
| O=C(O)c1cc(-c2cc(Cl)ccc2Cl)[nH]n1 | – | 109% | – |
| Cc1nc(-c2cccnc2-n2cnc(C(=O)O)c2)no1 | – | 83.2% | – |
| CC(C)c1nnc(NC(=O)C(=O)O)s1 | – | 87.2% | – |
| COc1cccc(C2CC(O)=Nc3c(C(=O)O)cn(-c4cccc(F)c4)c32)c1OC (stereo not drawn) | – | 101% | – |
